What was measured:
[1] = target: T1, TAS1R2 (Homo sapiens, UniProt Q8TE23); test: cryo-EM structures of human/human and human/mouse receptor with advantame; EC50 from cell-based calcium imaging (human/human)
T1 construct: VFT domain of TAS1R2 in the TAS1R2/TAS1R3 heterodimer; with TAS1R3 (human; also mouse TAS1R3)
T1 sequence (Q8TE23 22-839): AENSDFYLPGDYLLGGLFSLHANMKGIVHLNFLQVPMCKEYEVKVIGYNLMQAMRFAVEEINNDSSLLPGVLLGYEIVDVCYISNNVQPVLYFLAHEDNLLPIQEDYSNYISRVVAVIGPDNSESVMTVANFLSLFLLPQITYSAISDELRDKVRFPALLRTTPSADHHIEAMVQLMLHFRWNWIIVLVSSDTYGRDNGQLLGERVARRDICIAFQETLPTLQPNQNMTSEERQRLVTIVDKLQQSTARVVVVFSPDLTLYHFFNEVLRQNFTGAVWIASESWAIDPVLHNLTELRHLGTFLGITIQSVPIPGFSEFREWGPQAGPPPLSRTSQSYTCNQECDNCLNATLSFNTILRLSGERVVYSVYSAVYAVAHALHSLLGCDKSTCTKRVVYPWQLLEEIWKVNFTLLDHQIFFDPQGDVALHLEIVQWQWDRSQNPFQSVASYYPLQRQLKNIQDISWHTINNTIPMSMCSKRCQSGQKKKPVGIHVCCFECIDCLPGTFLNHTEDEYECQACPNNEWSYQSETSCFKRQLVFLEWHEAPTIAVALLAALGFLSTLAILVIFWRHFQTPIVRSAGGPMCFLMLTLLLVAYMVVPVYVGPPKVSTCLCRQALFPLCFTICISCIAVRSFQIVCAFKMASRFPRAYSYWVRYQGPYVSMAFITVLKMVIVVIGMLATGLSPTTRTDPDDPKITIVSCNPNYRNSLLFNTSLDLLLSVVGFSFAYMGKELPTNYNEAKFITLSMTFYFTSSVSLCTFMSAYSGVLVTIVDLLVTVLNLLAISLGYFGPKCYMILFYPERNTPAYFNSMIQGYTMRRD
T1 sequence (Q7RTX0 21-852 partner): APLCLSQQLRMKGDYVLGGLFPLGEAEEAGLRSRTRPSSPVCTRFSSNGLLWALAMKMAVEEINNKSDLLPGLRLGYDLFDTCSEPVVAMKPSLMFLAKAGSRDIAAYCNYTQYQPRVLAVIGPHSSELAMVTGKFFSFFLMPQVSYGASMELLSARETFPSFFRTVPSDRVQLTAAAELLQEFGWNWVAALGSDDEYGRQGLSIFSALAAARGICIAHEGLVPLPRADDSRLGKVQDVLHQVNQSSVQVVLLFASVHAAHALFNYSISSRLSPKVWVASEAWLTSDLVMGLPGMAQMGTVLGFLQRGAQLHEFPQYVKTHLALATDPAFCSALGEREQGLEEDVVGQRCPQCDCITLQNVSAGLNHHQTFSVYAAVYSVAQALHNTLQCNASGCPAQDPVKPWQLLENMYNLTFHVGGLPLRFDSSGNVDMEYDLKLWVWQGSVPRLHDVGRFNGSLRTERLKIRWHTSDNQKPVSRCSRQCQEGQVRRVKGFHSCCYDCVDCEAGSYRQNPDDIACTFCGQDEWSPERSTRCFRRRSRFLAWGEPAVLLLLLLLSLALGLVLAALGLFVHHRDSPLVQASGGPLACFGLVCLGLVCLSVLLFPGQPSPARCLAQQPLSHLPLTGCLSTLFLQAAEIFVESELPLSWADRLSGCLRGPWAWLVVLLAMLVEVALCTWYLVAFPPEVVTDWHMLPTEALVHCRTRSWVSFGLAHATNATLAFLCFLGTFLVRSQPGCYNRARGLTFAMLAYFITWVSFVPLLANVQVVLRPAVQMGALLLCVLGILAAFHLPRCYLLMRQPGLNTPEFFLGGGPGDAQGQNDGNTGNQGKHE
Source text: cryo-EM structures of human/human and human/mouse receptor with advantame; EC50 from cell-based calcium imaging (human/human) on TAS1R2 | Advantame also yields well-defined ligand density in the TAS1R2 VFT pocket of both human/mouse and human/human receptors

[2] = target: T2, TAS1R2 (Homo sapiens, UniProt Q8TE23); test: cell-based calcium imaging of the expressed human/human receptor
T2 construct: TAS1R2/TAS1R3 heterodimer; with TAS1R3 (human)
T2 sequence (Q8TE23 20-839): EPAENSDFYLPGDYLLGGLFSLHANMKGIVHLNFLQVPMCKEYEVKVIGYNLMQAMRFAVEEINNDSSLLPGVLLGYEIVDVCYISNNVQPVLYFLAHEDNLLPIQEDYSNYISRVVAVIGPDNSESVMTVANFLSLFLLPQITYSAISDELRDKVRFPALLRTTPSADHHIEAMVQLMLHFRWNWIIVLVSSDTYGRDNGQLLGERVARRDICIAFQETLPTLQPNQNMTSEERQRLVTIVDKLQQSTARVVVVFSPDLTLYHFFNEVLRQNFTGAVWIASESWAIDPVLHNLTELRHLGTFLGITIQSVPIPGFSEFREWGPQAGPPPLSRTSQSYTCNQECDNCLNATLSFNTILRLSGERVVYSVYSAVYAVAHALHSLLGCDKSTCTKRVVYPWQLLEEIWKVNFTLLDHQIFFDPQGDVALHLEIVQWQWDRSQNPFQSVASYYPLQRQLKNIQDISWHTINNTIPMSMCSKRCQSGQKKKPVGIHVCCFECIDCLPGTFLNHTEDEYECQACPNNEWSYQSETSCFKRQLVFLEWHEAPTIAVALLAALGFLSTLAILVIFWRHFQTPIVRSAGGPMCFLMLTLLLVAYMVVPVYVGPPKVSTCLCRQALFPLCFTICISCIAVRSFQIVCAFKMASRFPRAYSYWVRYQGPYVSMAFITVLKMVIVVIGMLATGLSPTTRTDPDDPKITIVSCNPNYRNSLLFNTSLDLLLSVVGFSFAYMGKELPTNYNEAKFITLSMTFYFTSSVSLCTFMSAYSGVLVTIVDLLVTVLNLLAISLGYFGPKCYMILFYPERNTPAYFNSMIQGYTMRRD
T2 sequence (Q7RTX0 21-852 partner): T1 sequence (Q7RTX0 21-852 partner)

For `COC(=O)[C@H](Cc1ccccc1)NC(=O)[C@H](CC(=O)O)NCCCc1ccc(OC)c(O)c1` [Adv, advantame], the EC50 [1] was 900 nM.

With `COC(=O)[C@H](Cc1ccccc1)NC(=O)[C@H](CC(=O)O)NCCC(C)(C)C` [neotame] the EC50 [2] was 2700 nM.
